According to US20140220694A1, “METHODS AND COMPOSITIONS RELATING TO PLATELET SENSITIVITY” (ELECTROPHORETICS LIMITED, priority 2011, published 2014):

Columns and labels:
Type in all cases: in vivo, human
platelets = test: TMTsixplex GeLC-MS/MS discovery proteomics of platelet extracts pre and post aspirin treatment; details: for peptide/protein expression after aspirin treatment: 300 mg daily, 1 month oral
Experimental: To address the shortage of sensitive, robust and reliable markers of aspirin resistance the inventors undertook a comparative proteomic study of platelet extracts derived from samples known to be resistant and sensitive following 1 month's oral administration of therapeutic doses of aspirin (300 mg daily).
Briefly, platelets were purified from blood drawn from individuals with functionally documented aspirin resistance (n=2) or sensitivity (n=4). In each case matched samples were drawn pre- and post-aspirin treatment. Proteins were extracted, reduced and alkylated prior to labelling with a sixplex set of isobaric mass tags (TMTsixplex, Proteome Sciences plc; Refer to FIG. 1b). After labelling sets of six samples were pooled according to a randomised schedule and subjected to 1-dimensional SDS-PAGE. Each gel lane was cut into […] and each band subjected to in gel digestion using trypsin prior to analysis by LC-MS/MS to allow protein identification. Relative quantitation of each protein was achieved by comparing the ion intensity and area under the curve for each of the six TMT Reporter Ions and proteins showing a difference in levels between aspirin resistant and sensitive platelets were thus identified.
From 94 healthy subjects, 2 subjects were determined as aspirin resistance using measurements of platelet aggregommetry (agonist's arachidonic acid and ADP) and 11-dehydroTXB2 in urine. To be defined as truly aspirin resistant subjects must have an abnormal response with both measures. Subjects took 300 mg aspirin daily for 1 month.
Preparation of Platelet Samples 60 ml whole blood was obtained from subjects from the antecubital vein using a Butterfly®19-gauge needle, and collected into NaCl trisodium citrate (final concentration 0.38%). […]
Prior to analysis by GeLC-MS/MS 30 μg of each sample within a TMTsixplex experiment were mixed 1:1:1:1:1:1. The combined sample was analysed by GeLC-MS/MS with the entire gel lane being excised into 15 sections. […]

integrin beta 3 (ITGB3) = test: SRM analysis of TMT-labelled platelet peptides, post:pre aspirin ratios
Experimental: Peptides identified in the discovery study from candidate proteins were taken forward if they were proteotypic and had characteristics suitable for robust SRM quantitation i.e. fully hydrolysed, contained no known modifications (either in vivo or experimental) and had suitable MS/MS fragments for Q3 selection. Up to six peptides per protein were selected for targeted quantitation (Table 2). The m/z of Q1 and Q3 transitions for selected peptides were calculated either from data-dependent sequencing in the discovery study or from in silico analysis using Pinpoint (ThermoFisher). The theoretical optimal collision energies for each transitions were also calculated using the discovery data and Pinpoint (ThermoFisher). Peptide dection and quantitation was based on time-alignment of multiple transitions per peptide (up to six transitions per peptide). Only peptides with consistant detection of multiple time-aligned transitions in all subject samples were used in the final quantitation. The final SRM method was then applied to the quantitative analysis of the experimental sample set. TMT-labeled subject samples (70/90 μg, check) were reduced, alkylated, digested in-solution and purified by RP and SCX chromatography. […] The SRM peak area for each pre-aspirin sample was measured relative to the SRM peak area for each post-aspirin sample. […]

[1] = test system: ITGB3 (Glycoprotein IIIa); test: Western blotting of platelet lysates with N- and C-terminal specific antibodies; details: irrespective of platelet responsiveness status
Experimental: Platelet lysates from subjects (10 μg each) were mixed with equal volumes of Laemmli sample buffer (2×) (125 mM Tris-base, 4% SDS, 20% glycerol, 4% β-mercaptoethanol, 0.04% bromophenol blue), and subsequently loaded onto a 12.5% SDS-PAGE gel. Proteins were transferred onto PVDF membranes, and detected using specific antibodies as follows. Paired blots were incubated with Anti-GP111a C-terminal specific (Santa Cruz Biotechnology, Item code sc-6626, C-20) or anti GP111a N-terminal specific (Santa Cruz Biotechnology, Item code sc-6627, N-20) respectively. Bands were scanned and densitometric analysis performed using Image J system (a Java based image processing program developed by the National Institutes of Health, Bethesda, USA).

Integrin beta 3 = Integrin beta 3 isotyping SRM assay, post:pre aspirin ratio
Experimental: 50 ml of whole blood was drawn from subjects into trisodium citrate (final concentration 0.32%) from the antecubital vein using a Butterfly® 19-guage siliconised needle. Blood was centrifuged (20 min, 200×g, room temperature (RT)) to obtain platelet rich plasma (PRP) that was acidified with the addition of 0.3M citric acid (target pH 6.5). Further centrifugation (15 min, 1200×g, RT) produced the platelet pellet that was immediately re-suspended in citrate wash buffer (refer to Appendix 1 for composition) and prostaglandin E1 (Sigma) was added to a final concentration of 10 nM. Removal of residual red cells and monocytes was performed by further centrifugation (3 min, 200×g, RT) and decanting of the platelet rich supernatant. Final centrifugation (15 min, 1200×g, RT) produced the washed platelet pellet that was stored at −80° C. The washed platelet pellet was re-suspended in lysis buffer (NaCl 150 mM, Tris-base 32 mM, NaF 50 mM, Na orthovanadate 1 mM to which 1 ml ethylenediaminetetraacetic acid (EDTA; 0.1M stock solution) and 1 ml Triton-X 100 was added prior to adjusting to pH 7.6 with conc. HCL and volume made up to 100 ml) containing protease inhibitor cocktail (Sigma Aldrich, UK) and placed on ice for 30 min, before agitation on ice for a further 5 min. The sample was centrifuged (5 min, 9000×g, 4° C.) to remove cellular debris. The supernatant was stored at −80° C. Aspirin sensitivity was assessed in individuals prescribed aspirin for secondary prevention using a combination of functional and biochemical assays. […] The amount of endogenous (light) peptide is calculated based on the peak area ratio relative to the 100 fmol spiked heavy peptide. For individuals where samples were available pre and post treatment with Aspirin, a post to pre ratio was calculated to assess any changes in peptide levels. […] For the healthy normal cohort, pre and post aspirin samples were not available and the basal pg measured peptides level per μg total protein were reported.

[2] = test system: platelet protein biomarkers of aspirin resistance; test: Aspirin resistance biomarker SRM method (six biomarkers); details: two aspirin resistant and 10 aspirin sensitive platelet digests
Text: The six markers are Integrin beta 3 (total) and Integrin beta 3 isoform A, heat shock protein A5, pyruvate kinase isozyme M1/M2, RAB GDP1 alpha & prostaglandin G/H synthase. For each marker two or three proteotypic tryptic peptides were selected and heavy isotope standard synthetic peptides were purchased from a commercial supplier (Thermo Scientific, Belgium). Platelet preparations from Example 3 were also used in the SRM method for simultaneous measurement of six biomarkers of aspirin resistance. Prior to analysis using Platelet Aspirin Resistance assay version 2.0 samples were resuspended in a solution containing 5 fmol/μL of each of the heavy AQUA peptides (See table 2) in the method and 200 μg/mL glucagon. Prior to SRM samples were resolved by RP-chromatography over a 9 minute ACN gradient (5-30%) in 0.2% formic acid at 100 μl/min. The Platelet Aspirin Resistance assay version 2.0 contains 96 SRM transitions, covering 17 peptides from 5 proteins. The SRM cycle time was 2 seconds with retention time windows used to maximise the scan time given to each SRM transition. Including washes and time to equalibrate the column, the total run time of the method was 30 minutes.

CC(=O)Oc1ccccc1C(=O)O [aspirin, acetylsalicyclic acid]
levels of vinculin, myosin and talin (platelets; housekeeping proteins used for normalisation): not influenced by aspirin treatment | peptide/protein expression after aspirin treatment (platelets; platelets from aspirin-resistant subjects): mostly down-regulation of peptide/protein expression | peptide/protein expression after aspirin treatment (platelets; platelets from aspirin-sensitive individuals): remained broadly similar or increased | ITGB3 peptide specific for isoform beta 3A, post:pre aspirin (integrin beta 3 (ITGB3); aspirin resistant compared to aspirin sensitive subjects): consistently showed significant changes | ITGB3 peptides common to all three isoforms, protein levels after treatment (integrin beta 3 (ITGB3); six subjects pre and post aspirin): no difference in protein levels | intensity of staining of integrin beta 3 band, N-terminus antibody [1]: consistent pre- and post-aspirin treatment | integrin beta 3 isoform A level after aspirin (Integrin beta 3; majority of 10 aspirin sensitive patients): remained level or decreased | total integrin beta 3 levels after aspirin (Integrin beta 3; majority of aspirin sensitive patients): remained relatively unchanged | integrin beta 3 isoform A level after aspirin (Integrin beta 3; two aspirin resistant patients, 1 month treatment): expected increase | aspirin-dependant expression of integrin beta 3 isoform A, heat shock protein A5, RAB GDP1 alpha, prostaglandin G/H synthase [2]: consistent changes | aspirin-dependant expression of pyruvate kinase isozyme M1/M2 [2]: more variable
